Results from US10633350B2, “Diphenyl derivatives and uses thereof” (NOVARTIS AG, priority 2017, dated 2020).

How the values were obtained:
Akt = Akt activation assay (Phospho-AKT (Ser473) antibody staining) in U2OS GFP-FoxO3a H212R reporter cells; format: cell-based; details: Homo sapiens, 0.5 h, serum starved overnight, 30 minutes compound treatment, total cellular intensity of Phospho-Akt (Ser473) antibody staining, AC50 = concentration that results in 50% activation or inhibition
How it was run: (§1)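 Serum-starved (overnight) cells treated with compounds at various doses for 30 min, then fixed in 4% paraformaldehyde and stained overnight at 4 °C for pAkt S473 with Hoechst nuclear counterstain; high-content imaging. FoxO3a readout: nuclear/cytosolic GFP ratio (%); Akt readout: total cellular pAkt intensity (%); DMSO = 0% activity.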

FoxO3a = FoxO3a inhibition assay (GFP-FoxO3a nuclear to cytoplasmic translocation) in U2OS GFP-FoxO3a H212R reporter cells; format: cell-based; details: Homo sapiens, 0.5 h, serum starved overnight, 30 minutes compound treatment, ratio of nuclear to cytosolic GFP intensity, AC50 = concentration that results in 50% activation or inhibition, read-out: FoxO AC50
How it was run: as §1

SMILES: Cc1nc(C(N)=O)nn1-c1ccc(Cc2ccc(-c3ccc(CN4CCC5(CC4)COC5)cc3)cc2)cc1 [Example 38-8]
- AC50 (Akt): 211 nM
- AC50 (FoxO3a): 51 nM

SMILES: Cc1nc(C(N)=O)nn1-c1ccc(Cc2ccc(-c3ccc(CN4CCCC(F)(F)C4)cc3)cc2)cc1 [Example 38-9]
- AC50 (Akt): 11 nM
- AC50 (FoxO3a): 13 nM

SMILES: Cc1nc(C(N)=O)nn1-c1ccc(Cc2ccc(-c3ccc(CN4CCC(C)(C)CC4)cc3)cc2)cc1 [Example 38-10]
- AC50 (Akt): 397 nM
- AC50 (FoxO3a): 175 nM

SMILES: Cc1nc(C(N)=O)nn1-c1ccc(Cc2ccc(-c3ccc(CN4CCC(CN(C)C)CC4)cc3)cc2)cc1 [Example 39-1, 1-(4-((4′-((4-((dimethylamino)methyl)piperidin-1-yl)methyl)-[1,1′-biphenyl]-4-yl)methyl)phenyl)-5-methyl-1H-1,2,4-triazole-3-carboxamide]
- AC50 (Akt): 615 nM
- AC50 (FoxO3a): 195 nM

SMILES: Cc1nc(C(N)=O)nn1-c1ccc(Cc2ccc(-c3ccc(CN4CCC(C(C)(C)O)CC4)cc3)cc2)cc1 [Example 39-3]
- AC50 (Akt): 120 nM
- AC50 (FoxO3a): 37 nM

SMILES: Cc1nc(C(N)=O)nn1-c1ccc(Cc2ccc(-c3ccc(CN4CC[C@@H](O)C4)cc3)cc2)cc1 [Example 39-4]
- AC50 (Akt): 92 nM
- AC50 (FoxO3a): 26 nM

SMILES: Cc1nc(C(N)=O)nn1-c1ccc(Cc2ccc(-c3ccc(CN4CC[C@H](O)C4)cc3)cc2)cc1 [Example 39-5]
- AC50 (Akt): 22 nM
- AC50 (FoxO3a): 8 nM

SMILES: Cc1nc(C(N)=O)nn1-c1ccc(Cc2ccc(-c3ccc(CN4CCC(C)(O)CC4)cc3)cc2)cc1 [Example 39-6]
- AC50 (Akt): 5 nM
- AC50 (FoxO3a): 9 nM

SMILES: Cc1nc(C(N)=O)nn1-c1ccc(Cc2ccc(-c3ccc(CN4CCS(=O)(=O)CC4)cc3)cc2)cc1 [Example 39-32]
- AC50 (Akt): 85 nM
- AC50 (FoxO3a): 48 nM

SMILES: Cc1nc(C(N)=O)nn1-c1ccc(Cc2ccc(-c3ccc(CN4CCC5(CCO5)CC4)cc3)cc2)cc1 [Example 39-37]
- AC50 (Akt): 270 nM
- AC50 (FoxO3a): 81 nM

SMILES: Cc1nc(C(N)=O)nn1-c1ccc(Cc2ccc(-c3ccc(CN4CCC[C@H]4CO)cc3)cc2)cc1 [Example 39-38]
- AC50 (Akt): 119 nM
- AC50 (FoxO3a): 48 nM

SMILES: Cc1cc(C(N)=O)nn1-c1ccc(Cc2ccc(-c3ccc(CN4CCC(N(C)C)CC4)cc3)cc2)cc1 [Example 40, 1-(4-((4′-((4-(dimethylamino)piperidin-1-yl)methyl)-[1,1′-biphenyl]-4-yl)methyl)phenyl)-5-methyl-1H-pyrazole-3-carboxamide]
- AC50 (Akt): 146 nM
- AC50 (FoxO3a): 32 nM

SMILES: Cc1nc(C(N)=O)nn1-c1ccc(Cc2ccc(-c3ccc(CC4C[C@@H]5CN(C)C[C@@H]5C4)cc3)cc2)cc1 (stereo partly drawn) [Example 41, 5-methyl-1-(4-((4′-(((3aR,6aS)-2-methyloctahydrocyclopenta[c]pyrrol-5-yl)methyl)-[1,1′-biphenyl]-4-yl)methyl)phenyl)-1H-1,2,4-triazole-3-carboxamide]
- AC50 (Akt): 91 nM
- AC50 (FoxO3a): 114 nM

SMILES: Cc1nc(C(N)=O)nn1-c1ccc(Cc2ccc(-c3ccc(CN4CCNCC4)cc3)cc2)cc1 [Example 45, 5-methyl-1-(4-((4′-(piperazin-1-ylmethyl)-[1,1′-biphenyl]-4-yl)methyl)phenyl)-1H-1,2,4-triazole-3-carboxamide]
- AC50 (Akt): 3 nM
- AC50 (FoxO3a): 130 nM

SMILES: Cc1nc(C(N)=O)nn1-c1ccc(Cc2ccc(-c3ccc(C(C)(C)O)nc3)cc2)cc1 [Example 46, 1-(4-(4-(6-(2-hydroxypropan-2-yl)pyridin-3-yl)benzyl)phenyl)-5-methyl-1H-1,2,4-triazole-3-carboxamide]
- AC50 (Akt): 1160 nM
- AC50 (FoxO3a): 234 nM

SMILES: Cc1nc(C(N)=O)nn1-c1ccc(Cc2ccc(-c3ccc(OC4CCN(C)CC4)cc3)cc2)cc1 [Example 47, 5-methyl-1-(4-((4′-((1-methylpiperidin-4-yl)oxy)-[1,1′-biphenyl]-4-yl)methyl)phenyl)-1H-1,2,4-triazole-3-carboxamide]
- AC50 (Akt): 99 nM
- AC50 (FoxO3a): 93 nM

SMILES: Cc1nc(C(N)=O)nn1-c1ccc(Cc2ccc(-c3ccc(C(C)(C)CO)cc3)cc2)cc1 [Example 48, 1-(4-((4′-(1-hydroxy-2-methylpropan-2-yl)-[1,1′-biphenyl]-4-yl)methyl)phenyl)-5-methyl-1H-1,2,4-triazole-3-carboxamide]
- AC50 (Akt): 160 nM
- AC50 (FoxO3a): 51 nM

SMILES: Cc1nc(C(N)=O)nn1-c1ccc(Cc2ccc(N3CCC(C(C)(C)O)CC3)cc2)cc1 [Example 49, 1-(4-(4-(4-(2-hydroxypropan-2-yl)piperidin-1-yl)benzyl)phenyl)-5-methyl-1H-1,2,4-triazole-3-carboxamide]
- AC50 (Akt): 840 nM
- AC50 (FoxO3a): 273 nM

SMILES: Cc1nc(C(N)=O)nn1-c1ccc(Cc2ccc(-c3ccc(S(=O)(=O)NCC(C)(C)O)cc3)cc2)cc1 [Example 50, 1-(4-((4′-(N-(2-hydroxy-2-methylpropyl)sulfamoyl)-[1,1′-biphenyl]-4-yl)methyl)phenyl)-5-methyl-1H-1,2,4-triazole-3-carboxamide]
- AC50 (Akt): 117 nM
- AC50 (FoxO3a): 36 nM

SMILES: Cc1nc(C(N)=O)nn1-c1ccc(Cc2ccc(-c3ccc(C(=O)NCC(C)(C)O)cc3)cc2)cc1 [Example 51, 1-(4-((4′-((2-hydroxy-2-methylpropyl)carbamoyl)-[1,1′-biphenyl]-4-yl)methyl)phenyl)-5-methyl-1H-1,2,4-triazole-3-carboxamide]
- AC50 (Akt): 300 nM
- AC50 (FoxO3a): 102 nM

SMILES: Cc1nc(C(N)=O)nn1-c1ccc(Cc2ccc(-c3ccc(S(=O)(=O)NCC(C)(C)O)cn3)cc2)cc1 [Example 52, 1-(4-(4-(5-(N-(2-hydroxy-2-methylpropyl)sulfamoyl)pyridin-2-yl)benzyl)phenyl)-5-methyl-1H-1,2,4-triazole-3-carboxamide]
- AC50 (Akt): 749 nM
- AC50 (FoxO3a): 106 nM

SMILES: Cc1nc(C(N)=O)nn1-c1ccc(Cc2ccc(-c3cc(C(C)(C)O)ccn3)cc2)cc1 [Example 53, 1-(4-(4-(4-(2-hydroxypropan-2-yl)pyridin-2-yl)benzyl)phenyl)-5-methyl-1H-1,2,4-triazole-3-carboxamide]
- AC50 (Akt): 8230 nM
- AC50 (FoxO3a): 2420 nM

SMILES: Cc1nc(C(N)=O)nn1-c1ccc(Cc2ccc(C#CC3CCN(C)CC3)cc2)cc1 [Example 54, 5-methyl-1-(4-(4-((1-methylpiperidin-4-yl)ethynyl)benzyl)phenyl)-1H-1,2,4-triazole-3-carboxamide]
- AC50 (Akt): 528 nM
- AC50 (FoxO3a): 248 nM

SMILES: Cc1nc(C(N)=O)nn1-c1ccc(Cc2ccc(C#CC3(O)CCCCC3)cc2)cc1 [Example 55, 1-(4-(4-((1-hydroxycyclohexyl)ethynyl)benzyl)phenyl)-5-methyl-1H-1,2,4-triazole-3-carboxamide]
- AC50 (Akt): 1290 nM
- AC50 (FoxO3a): 96 nM

SMILES: Cc1nc(C(N)=O)nn1-c1ccc(Cc2ccc(-c3ccc(C(C)(C)CO)cn3)cc2)cc1 [Example 56, 1-(4-(4-(5-(1-hydroxy-2-methylpropan-2-yl)pyridin-2-yl)benzyl)phenyl)-5-methyl-1H-1,2,4-triazole-3-carboxamide]
- AC50 (Akt): 366 nM
- AC50 (FoxO3a): 156 nM
